The record followed here is patent US9187472B2 (AbbVie Inc., priority 2012, dated 2015).

Some results are limits rather than exact numbers.

For one assay, the target named is NAMPT (Homo sapiens, UniProt P43490). Nature of the assay: TR-FRET Binding Assay of NAMPT with PRPP. The following applies: with 200 μM PRPP and 2.5 mM ATP; 2 nM NAMPT, 2 nM probe, 16 hours equilibration. The method in brief: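 Human NAMPT (2 nM) with 2 nM probe and 1 nM Tb-anti-His antibody, plus 200 μM PRPP and 2.5 mM ATP, 2% DMSO. TR-FRET read after 16 h equilibration, permitting possible enzymatic modification of test compounds; data processing as for the substrate-free format.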
Sequence of NAMPT (P43490 whole entry): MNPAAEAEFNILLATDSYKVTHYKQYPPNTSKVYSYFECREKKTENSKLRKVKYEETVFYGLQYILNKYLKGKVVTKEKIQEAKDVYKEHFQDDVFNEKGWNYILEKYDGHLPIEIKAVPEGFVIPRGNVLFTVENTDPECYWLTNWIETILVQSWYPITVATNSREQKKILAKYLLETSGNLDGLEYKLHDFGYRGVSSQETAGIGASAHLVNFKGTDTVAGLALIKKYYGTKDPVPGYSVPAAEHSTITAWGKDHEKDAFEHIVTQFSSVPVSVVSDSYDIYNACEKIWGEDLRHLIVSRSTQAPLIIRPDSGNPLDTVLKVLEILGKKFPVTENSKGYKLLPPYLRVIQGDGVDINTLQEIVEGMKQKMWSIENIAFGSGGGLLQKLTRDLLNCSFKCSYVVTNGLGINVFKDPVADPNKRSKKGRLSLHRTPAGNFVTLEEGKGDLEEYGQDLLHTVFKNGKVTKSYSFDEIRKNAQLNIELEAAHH
In general terms: In TR-FRET formats the signal depends on donor and acceptor labels being close together.

For assay [1], the target named is NAMPT (human, recombinant, C-terminally His-tagged) (Homo sapiens, UniProt P43490). Nature of the assay: Time-Resolved Fluorescence Resonance Energy Transfer (TR-FRET) Binding Assay of NAMPT. The following applies: without substrates; 6.8 nM NAMPT, 200 nM probe, 3 hours equilibration. In outline:
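A TR-FRET probe-displacement assay used 6.8 nM His-tagged recombinant human NAMPT, 200 nM Oregon Green 488-labelled nicotinamide-competitive probe and 1 nM Tb-anti-His antibody. Buffer was HEPES pH 7.5 with NaCl, MgCl2, DTT and glycerol, plus 2% DMSO, equilibrated 3 h at room temperature. Em520/Em495 ratios, normalized to controls, gave IC50 by four-parameter logistic fit.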

Another assay has as its system PC3 cells. Nature of the assay: NAMPT Cell Proliferation Assay. The class given is cell-based. The conditions noted are these: Homo sapiens, PC-3, 120 h, 5 days incubation, cell viability by Cell Titer Glo. In outline:
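PC3 cells were plated at 500 cells/well in RPMI with 10% heat-inactivated FBS, left to attach overnight, then given compounds in 10-fold dilutions from 10 μM to 1×10^−5 μM. After 5 days at 37° C and 5% CO2, viability was read by luminescence and IC50s came from sigmoidal fits of percent inhibition.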
For orientation: In ATP-based viability assays light output follows the ATP content of the culture.

Sequence of NAMPT (human, recombinant, C-terminally His-tagged) (P43490 whole entry): as above

Turning to `O=C(Nc1ccc(C(=O)NCc2ccccc2)cc1)Nc1ccc2nccn2c1` [Example 7, N-benzyl-4-[(imidazo[1,2-a]pyridin-6-ylcarbamoyl)amino]benzamide], the IC50 on NAMPT was 0.516 nM; in assay [1], 183 nM; with PC3 cells it was 527 nM.
On to `O=C(NCCCCC1CCN(C(=O)C2CCOC2)CC1)Nc1ccc2nccn2c1` (stereo not drawn) [Example 72, 1-imidazo[1,2-a]pyridin-6-yl-3-{4-[1-(tetrahydrofuran-3-ylcarbonyl)piperidin-4-yl]butyl}urea], for which the IC50 at NAMPT came out at 0.536 nM; in assay [1], 851 nM; with PC3 cells, 65.9 nM.
The corresponding values for `O=C(NCc1ccn2ccnc2c1)Nc1ccc(O[C@@H]2CCN(C(=O)CC3CC3)C2)cc1` [Example 332, 1-(4-{[(3R)-1-(cyclopropylacetyl)pyrrolidin-3-yl]oxy}phenyl)-3-(imidazo[1,2-a]pyridin-7-ylmethyl)urea] are 0.297 nM, 180 nM and 64.3 nM.
In the same order, the values of `O=C(NCc1ccn2ccnc2c1)c1ccc(C2CCN(C(=O)c3ccccc3F)CC2)cc1` [Example 513, 4-[1-(2-fluorobenzoyl)piperidin-4-yl]-N-(imidazo[1,2-a]pyridin-7-ylmethyl)benzamide] are 0.188 nM, 23.9 nM and 1.18 nM.
In the same order, the values of `Cc1cccc(C(=O)N2CC(c3ccc(C(=O)NCc4ccn5ccnc5c4)cc3)C2)c1` [Example 667, N-(imidazo[1,2-a]pyridin-7-ylmethyl)-4-[1-(3-methylbenzoyl)azetidin-3-yl]benzamide] are 0.798 nM, 226 nM and 45.8 nM.
Regarding `COc1cccc(C(=O)N2CCC(c3ccc(C(=O)NCc4ccn5ccnc5c4)cc3)C2)c1` (stereo not drawn) [Example 604, N-(imidazo[1,2-a]pyridin-7-ylmethyl)-4-[1-(3-methoxybenzoyl)pyrrolidin-3-yl]benzamide], the IC50 at NAMPT was 0.843 nM; in assay [1] it was 151 nM; with PC3 cells, 10.1 nM.
The corresponding values for `CC(C)(O)CC(=O)N1CCC(c2ccc(NC(=O)NCc3ccn4ccnc4c3)cc2)CC1` [Example 226, 1-{4-[1-(3-hydroxy-3-methylbutanoyl)piperidin-4-yl]phenyl}-3-(imidazo[1,2-a]pyridin-7-ylmethyl)urea] are 0.608 nM, 113 nM and 7.26 nM.
In the same order, the values of `CCCC(=O)N1CCC(Oc2ccc(C(=O)NCc3ccc4nccn4c3)cc2)CC1` [Example 168, 4-[(1-butanoylpiperidin-4-yl)oxy]-N-(imidazo[1,2-a]pyridin-6-ylmethyl)benzamide] are 0.951 nM, 1110 nM and 208 nM.
In the same order, the values of `Cc1ccccc1C(=O)N1CCC(c2ccc(C(=O)NCc3ccn4ccnc4c3)s2)C1` (stereo not drawn) [Example 794, N-(imidazo[1,2-a]pyridin-7-ylmethyl)-5-[1-(2-methylbenzoyl)pyrrolidin-3-yl]thiophene-2-carboxamide] are 0.465 nM, 29 nM and 0.883 nM.
With `O=C(NCc1ccn2ccnc2c1)c1ccc(C2CCN(C(=O)c3c(F)cccc3F)CC2)cc1` [Example 700, 4-[1-(2,6-difluorobenzoyl)piperidin-4-yl]-N-(imidazo[1,2-a]pyridin-7-ylmethyl)benzamide], the results for the IC50 (on NAMPT; in assay [1]; with PC3 cells) were 1.03 nM, 68.4 nM and 3.25 nM, respectively.
In the same order, the values of `O=C(NCc1ccn2ccnc2c1)c1ccc(-c2cnn(CC3COCCO3)c2)s1` (stereo not drawn) [Example 316, 5-[1-(1,4-dioxan-2-ylmethyl)-1H-pyrazol-4-yl]-N-(imidazo[1,2-a]pyridin-7-ylmethyl)thiophene-2-carboxamide] are 0.169 nM, 42.1 nM and 6.34 nM.
In the same order, the values of `O=C(CC1CCCC1)Nc1ccc(NC(=O)NCc2ccn3ncnc3c2)cc1` [Example 564, 2-cyclopentyl-N-(4-{[([1,2,4]triazolo[1,5-a]pyridin-7-ylmethyl)carbamoyl]amino}phenyl)acetamide] are 3.43 nM, 23.8 nM and 211 nM.
In the same order, the values of `CC(C)CS(=O)(=O)N1CCC(c2ncc(C(=O)NCc3ccn4ccnc4c3)s2)C1` (stereo not drawn) [Example 751, N-(imidazo[1,2-a]pyridin-7-ylmethyl)-2-{1-[(2-methylpropyl)sulfonyl]pyrrolidin-3-yl}-1,3-thiazole-5-carboxamide] are 1 nM, 1240 nM and 755 nM.
`COc1ccc(C(=O)N2CCC(c3ccc(C(=O)NCc4ccn5ccnc5c4)cc3)CC2)cc1` [Example 528, N-(imidazo[1,2-a]pyridin-7-ylmethyl)-4-[1-(4-methoxybenzoyl)piperidin-4-yl]benzamide]: the IC50 stood at 0.276 nM at NAMPT, 126 nM in assay [1] and 24 nM in the assay on PC3 cells.
`O=C(NCc1ccc2nccn2c1)c1ccc(C2=CCN(C(=O)c3ccccc3)CC2)cc1` [Example 104, 4-(1-benzoyl-1,2,3,6-tetrahydropyridin-4-yl)-N-(imidazo[1,2-a]pyridin-6-ylmethyl)benzamide]: the IC50 worked out at 2 nM on NAMPT, 135 nM in assay [1] and 8.46 nM in the assay with PC3 cells.
The corresponding values for `CC1(C(=O)N2CCC(c3ccc(C(=O)NCc4ccn5ccnc5c4)cc3)CC2)CC1` [Example 538, N-(imidazo[1,2-a]pyridin-7-ylmethyl)-4-{1-[(1-methylcyclopropyl)carbonyl]piperidin-4-yl}benzamide] are 0.514 nM, 275 nM and 3.33 nM.
In the same order, the values of `CCCC(=O)Nc1ccc(NC(=O)Nc2ccc3nccn3c2)cc1` [Example 44] are 0.496 nM, 396 nM and 1580 nM.
For the compound `CC(C)CC(=O)N1CCC(n2nccc2C(=O)NCc2ccn3ccnc3c2)CC1` [Example 409], the IC50 is 480 nM at NAMPT, greater than 10000 nM in assay [1] and no less than 10000 nM in the assay with PC3 cells.
In the same order, the values of `Cc1cccc(C(=O)N2CCC(c3ccc(C(=O)NCc4ccn5ccnc5c4)cc3)C2)c1` (stereo not drawn) [Example 616, N-(imidazo[1,2-a]pyridin-7-ylmethyl)-4-[1-(3-methylbenzoyl)pyrrolidin-3-yl]benzamide] are 0.49 nM, 174 nM and 32.6 nM.
The corresponding values for `COCCC(=O)N(CC1CCCO1)c1ncc(C(=O)NCc2ccn3ccnc3c2)s1` (stereo not drawn) [Example 121, N-(imidazo[1,2-a]pyridin-7-ylmethyl)-2-[(3-methoxypropanoyl)(tetrahydrofuran-2-ylmethyl)amino]-1,3-thiazole-5-carboxamide] are 0.234 nM, 486 nM and 3.91 nM.
The corresponding values for `O=C(NCc1ccn2ccnc2c1)c1ccc(C2CCN(C(=O)c3ccccn3)C2)cc1` (stereo not drawn) [Example 611, N-(imidazo[1,2-a]pyridin-7-ylmethyl)-4-[1-(pyridin-2-ylcarbonyl)pyrrolidin-3-yl]benzamide] are 0.621 nM, 288 nM and 70.9 nM.
On to `CC(C)CCC(=O)Nc1ccc(NC(=O)Nc2ccc3nccn3c2)cc1` [Example 47, N-{4-[(imidazo[1,2-a]pyridin-6-ylcarbamoyl)amino]phenyl}-4-methylpentanamide], for which the half-inhibitory concentration (IC50) at NAMPT turned out to be 0.62 nM; in assay [1], 57.5 nM; with PC3 cells it was 64.8 nM.
The corresponding values for `Cn1cccc1C(=O)N1CCC(c2ccc(C(=O)NCc3ccn4ccnc4c3)cc2)CC1` [Example 533, N-(imidazo[1,2-a]pyridin-7-ylmethyl)-4-{1-[(1-methyl-1H-pyrrol-2-yl)carbonyl]piperidin-4-yl}benzamide] are 0.169 nM, 101 nM and 17.4 nM.
For `O=C(NCc1ccn2ccnc2c1)c1cnc(C2CCN(c3ccccc3)CC2)s1` [Example 688, N-(imidazo[1,2-a]pyridin-7-ylmethyl)-2-(1-phenylpiperidin-4-yl)-1,3-thiazole-5-carboxamide], the values for the IC50 (on NAMPT; in assay [1]; in the assay on PC3 cells) were 2.66 nM, 1110 nM and 5480 nM, respectively.
In the same order, the values of `O=C(NCc1ccc2nccn2c1)c1cnc(N(CC2CCOC2)C(=O)C2CCOCC2)s1` (stereo not drawn) [Example 140, N-(imidazo[1,2-a]pyridin-6-ylmethyl)-2-[(tetrahydrofuran-3-ylmethyl)(tetrahydro-2H-pyran-4-ylcarbonyl)amino]-1,3-thiazole-5-carboxamide] are 0.927 nM, 1340 nM and 65.5 nM.
In the same order, the values of `CC(C)CC1CCCN1C(=O)c1ccc(C(=O)NCc2ccn3ccnc3c2)s1` (stereo not drawn) [Example 824, N-(imidazo[1,2-a]pyridin-7-ylmethyl)-5-{[2-(2-methylpropyl)pyrrolidin-1-yl]carbonyl}thiophene-2-carboxamide] are 0.566 nM, 118 nM and 12.4 nM.

By IC50 is commonly meant the concentration needed to halve the response being measured.
